Results from paper PMC7794217, “A bi-specific lectin from the mushroom Boletopsis grisea and its application in glycoanalytical workflows” (Scientific Reports, 2021).

How the values were obtained:
Assay in all cases: SPR (Biacore […]), equilibrium fit to […] model
Assay type in all cases: binding
[1] = molecular target: T1, BGL (Boletopsis grisea lectin), recombinant wild-type rBGL (Boletopsis grisea, UniProt A0A1L2F5J1)
T1 construct: full-length 143 amino acid ORF (GenBank KT315924), expressed in E. coli, lacking N-terminal Met
T1 sequence (A0A1L2F5J1 2-143): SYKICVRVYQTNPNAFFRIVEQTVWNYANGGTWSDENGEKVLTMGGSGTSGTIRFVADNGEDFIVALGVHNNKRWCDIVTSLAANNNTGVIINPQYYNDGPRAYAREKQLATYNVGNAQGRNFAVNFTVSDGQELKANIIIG

[2] = molecular target: T2, BGL (Boletopsis grisea lectin), G49N mutant (Boletopsis grisea, UniProt A0A1L2F5J1, G49N)
T2 construct: full-length BGL ORF expressed in E. coli
T2 sequence (A0A1L2F5J1 entry or part of it G49N): as the sequence (A0A1L2F5J1 2-143) above

[3] = molecular target: T3, BGL (Boletopsis grisea lectin), H71E mutant (Boletopsis grisea, UniProt A0A1L2F5J1, H71E)
T3 construct: full-length BGL ORF expressed in E. coli
T3 sequence (A0A1L2F5J1 entry or part of it H71E): as the sequence (A0A1L2F5J1 2-143) above

[4] = molecular target: T4, BGL (Boletopsis grisea lectin), S48K mutant (Boletopsis grisea, UniProt A0A1L2F5J1, S48K)
T4 construct: full-length BGL ORF expressed in E. coli
T4 sequence (A0A1L2F5J1 entry or part of it S48K): as the sequence (A0A1L2F5J1 2-143) above

CC(=O)N[C@H]1C(O)O[C@H](CO)[C@@H](O)[C@@H]1O (stereo partly shown) [GlcNAc] was tested. Which Kd [1] did it give?
Its Kd is 1086 ± 8 µM.

What about the Kd [2] of the same compound?
The Kd was 910 ± 10 µM.

And the Kd [3]?
The Kd was 2330 ± 80 µM.

And the Kd [4]?
The Kd was 1010 ± 20 µM.
